# Tests used:
# Type in all cases: in vivo
# Settings in all cases: 5 mg/kg oral gavage
# [1] = target: MAGL (Mus musculus (Mouse), UniProt O35678); experiment: Mouse brain proteomes from inhibitor treated mice (oral gavage, sacrifice 4 h after administration, ABPP analysis)
# Experimental: (§1) Preparation of Mouse Brain Proteomes from Inhibitor Treated Mice.
# (§2) Inhibitors were administered to wild-type C57Bl/6J by oral gavage in a vehicle, e.g. PEG400/Ethanol/PBS (7/2/1). Each animal was sacrificed 4 h following administration and brain proteomes were prepared and analyzed according to previously established methods (See Niphakis, M. J., et al. (2011) ACS Chem. Neurosci. and Long, J. Z., et al. Nat. Chem. Biol. 5:37-44). Data from this assay is shown in Table 2 (% inhibition at 5 mg/kg).
# [2] = target: FAAH (Mus musculus (Mouse), UniProt O08914); experiment: Mouse brain proteomes from inhibitor treated mice (oral gavage, sacrifice 4 h after administration, ABPP analysis), FAAH
# Sequence of FAAH (O08914 whole entry): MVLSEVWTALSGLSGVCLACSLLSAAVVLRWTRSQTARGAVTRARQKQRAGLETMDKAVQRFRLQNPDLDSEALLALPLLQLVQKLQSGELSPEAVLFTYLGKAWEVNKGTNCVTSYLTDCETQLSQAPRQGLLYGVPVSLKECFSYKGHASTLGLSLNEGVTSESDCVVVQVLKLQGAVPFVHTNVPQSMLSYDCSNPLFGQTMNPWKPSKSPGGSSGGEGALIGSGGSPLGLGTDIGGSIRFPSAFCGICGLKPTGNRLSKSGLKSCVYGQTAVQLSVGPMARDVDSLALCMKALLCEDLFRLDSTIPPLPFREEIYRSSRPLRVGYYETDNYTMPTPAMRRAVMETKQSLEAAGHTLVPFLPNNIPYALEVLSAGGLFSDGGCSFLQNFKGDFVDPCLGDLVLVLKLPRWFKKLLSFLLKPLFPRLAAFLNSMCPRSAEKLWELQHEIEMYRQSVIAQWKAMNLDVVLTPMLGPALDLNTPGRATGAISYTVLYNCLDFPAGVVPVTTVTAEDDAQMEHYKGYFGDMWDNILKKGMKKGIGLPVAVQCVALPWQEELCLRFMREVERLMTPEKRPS
# Experimental: as §1, §2
# [3] = target: ABHD6 (Mus musculus (Mouse), UniProt Q8R2Y0); experiment: Mouse brain proteomes from inhibitor treated mice (oral gavage, sacrifice 4 h after administration, ABPP analysis), ABHD6
# Sequence of ABHD6 (Q8R2Y0 whole entry): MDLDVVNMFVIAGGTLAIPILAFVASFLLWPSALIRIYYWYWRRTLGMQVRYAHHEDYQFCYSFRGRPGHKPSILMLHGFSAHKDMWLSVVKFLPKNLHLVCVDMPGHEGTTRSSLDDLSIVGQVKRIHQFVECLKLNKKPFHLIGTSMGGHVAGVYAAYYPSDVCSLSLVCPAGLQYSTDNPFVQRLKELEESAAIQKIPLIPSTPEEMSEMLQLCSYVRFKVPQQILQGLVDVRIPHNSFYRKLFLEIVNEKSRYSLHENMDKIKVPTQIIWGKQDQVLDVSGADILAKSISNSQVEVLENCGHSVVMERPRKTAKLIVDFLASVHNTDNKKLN
# Experimental: as §1, §2
# Sequence of MAGL (O35678 whole entry): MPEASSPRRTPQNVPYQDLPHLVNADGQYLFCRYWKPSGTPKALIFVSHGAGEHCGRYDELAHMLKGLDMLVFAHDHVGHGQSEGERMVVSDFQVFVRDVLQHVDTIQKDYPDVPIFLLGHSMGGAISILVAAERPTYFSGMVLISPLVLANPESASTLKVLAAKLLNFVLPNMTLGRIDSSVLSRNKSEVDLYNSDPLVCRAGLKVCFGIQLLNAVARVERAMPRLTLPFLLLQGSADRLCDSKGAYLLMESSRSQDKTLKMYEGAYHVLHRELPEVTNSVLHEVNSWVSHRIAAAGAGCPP
SMILES,MAGL % Inh 5 mg/kg (mouse) [1],FAAH % Inh 5 mg/kg (mouse) [2],ABHD6 % Inh 5 mg/kg (mouse) [3]
O=C(O)C1CCN(Cc2cc(CN3CCCC34CCN(C(=O)OC(C(F)(F)F)C(F)(F)F)CC4)cc(C(F)(F)F)c2)CC1 [Example 244],### (### is ≥ 75%),# (# is < 25%),# (# is < 25%)
"O=C(OC(C(F)(F)F)C(F)(F)F)N1CCC2(CCCN2Cc2ccc(N3CCOCC3)c(C(F)(F)F)c2)CC1 [Example 129, 1,1,1,3,3,3-Hexafluoropropan-2-yl 1-(4-morpholino-3-(trifluoromethyl)benzyl)-1,8-diazaspiro[4.5]decane-8-carboxylate]",### (### is ≥ 75%),# (# is < 25%),# (# is < 25%)
O=C(O)C1CCN(Cc2cc(Cl)cc(CN3CCCC34CCN(C(=O)OC(C(F)(F)F)C(F)(F)F)CC4)c2)C1 (stereo not shown) [Example 272],### (### is ≥ 75%),# (# is < 25%),# (# is < 25%)
"O=C(OC(C(F)(F)F)C(F)(F)F)N1CCC2(CCCN2Cc2ccc(C(F)(F)F)c(Cl)c2)CC1 [Example 183, 1,1,1,3,3,3-Hexafluoropropan-2-yl 1-(3-chloro-4-(trifluoromethyl)benzyl)-1,8-diazaspiro[4.5]decane-8-carboxylate]",### (### is ≥ 75%),# (# is < 25%),# (# is < 25%)
O=C(O)C1CCN(Cc2cc(C(F)(F)F)ccc2CN2CCCC23CCN(C(=O)OC(C(F)(F)F)C(F)(F)F)CC3)CC1 [Example 238],### (### is ≥ 75%),# (# is < 25%),# (# is < 25%)
"Cc1ccc(CN2CCCC23CCN(C(=O)OC(C(F)(F)F)C(F)(F)F)CC3)cc1Cl [Example 125, 1,1,1,3,3,3-Hexafluoropropan-2-yl 1-(3-chloro-4-methylbenzyl)-1,8-diazaspiro[4.5]decane-8-carboxylate]",### (### is ≥ 75%),# (# is < 25%),# (# is < 25%)
"O=C(OC(C(F)(F)F)C(F)(F)F)N1CCC2(CCCN2Cc2ccc(Cl)cc2N2CC3COCC3C2)CC1 (stereo not shown) [Example 108, 1,1,1,3,3,3-Hexafluoropropan-2-yl 1-(4-chloro-2-(tetrahydro-1H-furo[3,4-c]pyrrol-5(3H)-yl)benzyl)-1,8-diazaspiro[4.5]decane-8-carboxylate]",### (### is ≥ 75%),# (# is < 25%),# (# is < 25%)
"O=C(OC(C(F)(F)F)C(F)(F)F)N1CCC2(CCCN2Cc2ccc(C(F)(F)F)c(N3CCCC3)c2)CC1 [Example 134, 1,1,1,3,3,3-Hexafluoropropan-2-yl 1-(3-(pyrrolidin-1-yl)-4-(trifluoromethyl)benzyl)-1,8-diazaspiro[4.5]decane-8-carboxylate]",### (### is ≥ 75%),# (# is < 25%),# (# is < 25%)
O=C(O)C1CCN(c2cc(S(F)(F)(F)(F)F)ccc2CN2CCCC23CCN(C(=O)OC(C(F)(F)F)C(F)(F)F)CC3)CC1 [Example 240],### (### is ≥ 75%),# (# is < 25%),# (# is < 25%)
"O=C(OC(C(F)(F)F)C(F)(F)F)N1CCC2(CCCN2Cc2ccc(N3CCCC3)c(C(F)(F)F)c2)CC1 [Example 130, 1,1,1,3,3,3-Hexafluoropropan-2-yl 1-(4-(pyrrolidin-1-yl)-3-(trifluoromethyl)benzyl)-1,8-diazaspiro[4.5]decane-8-carboxylate]",### (### is ≥ 75%),# (# is < 25%),# (# is < 25%)
"O=C(OC(C(F)(F)F)C(F)(F)F)N1CCC2(CCCN2Cc2ccc(F)c(OCCF)c2)CC1 [Example 29, 1,1,1,3,3,3-Hexafluoropropan-2-yl 1-(4-fluoro-3-(2-fluoroethoxy)benzyl)-1,8-diazaspiro[4.5]decane-8-carboxylate]",### (### is ≥ 75%),–,### (### is ≥ 75%)
"COc1c(Cl)cccc1CN1CCCC12CCN(C(=O)OC(C(F)(F)F)C(F)(F)F)CC2 [Example 10, 1,1,1,3,3,3-Hexafluoropropan-2-yl 1-(3-chloro-2-methoxybenzyl)-1,8-diazaspiro[4.5]decane-8-carboxylate]",### (### is ≥ 75%),–,# (# is < 25%)
"CCOc1cccc(CN2CCCC23CCN(C(=O)OC(C(F)(F)F)C(F)(F)F)CC3)c1 [Example 5, 1,1,1,3,3,3-Hexafluoropropan-2-yl 1-(3-ethoxybenzyl)-1,8-diazaspiro[4.5]decane-8-carboxylate]",### (### is ≥ 75%),# (# is < 25%),–
N#Cc1cc(CN2CCCC23CCN(C(=O)OC(C(F)(F)F)C(F)(F)F)CC3)cc(N2CCC(C(=O)O)CC2)c1 [Example 210],### (### is ≥ 75%),# (# is < 25%),–
"O=C(OC(C(F)(F)F)C(F)(F)F)N1CCC2(CCCN2Cc2cc(Cl)cc(N3CCOCC3)c2)CC1 [Example 33, 1,1,1,3,3,3-Hexafluoropropan-2-yl 1-(3-chloro-5-morpholinobenzyl)-1,8-diazaspiro[4.5]decane-8-carboxylate]",### (### is ≥ 75%),–,# (# is < 25%)
"O=C(OC(C(F)(F)F)C(F)(F)F)N1CCC2(CCN(Cc3ccc(C(F)(F)F)c(N4CCCC4)c3)C2)CC1 [Example 157, 1,1,1,3,3,3-Hexafluoropropan-2-yl 2-(3-(pyrrolidin-1-yl)-4-(trifluoromethyl)benzyl)-2,8-diazaspiro[4.5]decane-8-carboxylate]",### (### is ≥ 75%),# (# is < 25%),–
"O=C(OC(C(F)(F)F)C(F)(F)F)N1CCC2(CCCN2Cc2ccccc2Cl)CC1 [Example 60, 1,1,1,3,3,3-Hexafluoropropan-2-yl 1-(2-chlorobenzyl)-1,8-diazaspiro[4.5]decane-8-carboxylate]",### (### is ≥ 75%),–,# (# is < 25%)
"CC1(C)CC2(CCN(C(=O)OC(C(F)(F)F)C(F)(F)F)CC2)CN1Cc1ccc(Cl)cc1 [Example 48, 1,1,1,3,3,3-Hexafluoropropan-2-yl 2-(4-chlorobenzyl)-3,3-dimethyl-2,8-diazaspiro[4.5]decane-8-carboxylate]",### (### is ≥ 75%),# (# is < 25%),–
"O=C(O)c1cc(CN2CCCC23CCN(C(=O)OC(C(F)(F)F)C(F)(F)F)CC3)ccc1C(F)(F)F [Example 179, 5-((8-((1,1,1,3,3,3-Hexafluoropropan-2-yloxy)carbonyl)-1,8-diazaspiro[4.5]decan-1-yl)methyl)-2-(trifluoromethyl)benzoic acid]",### (### is ≥ 75%),–,# (# is < 25%)
"O=C(OC(C(F)(F)F)C(F)(F)F)N1CCC2(CCCN2Cc2ccc(Cl)cc2N2CCC2)CC1 [Example 107, 1,1,1,3,3,3-Hexafluoropropan-2-yl 1-(2-(azetidin-1-yl)-4-chlorobenzyl)-1,8-diazaspiro[4.5]decane-8-carboxylate]",### (### is ≥ 75%),–,# (# is < 25%)
"CCN1CCCc2cccc(CN3CCC4(CCN(C(=O)OC(C(F)(F)F)C(F)(F)F)CC4)C3)c21 [Example 71, 1,1,1,3,3,3-Hexafluoropropan-2-yl 2-((1-ethyl-1,2,3,4-tetrahydroquinolin-8-yl)methyl)-2,8-diazaspiro[4.5]decane-8-carboxylate]",### (### is ≥ 75%),# (# is < 25%),–
"O=C(OC(C(F)(F)F)C(F)(F)F)N1CCC2(CCCN2Cc2ccc(OCCF)cc2)CC1 [Example 31, 1,1,1,3,3,3-Hexafluoropropan-2-yl 1-(4-(2-fluoroethoxy)benzyl)-1,8-diazaspiro[4.5]decane-8-carboxylate]",### (### is ≥ 75%),# (# is < 25%),–
"O=C(OC(C(F)(F)F)C(F)(F)F)N1CCC2(CCCN2Cc2ccc(Cl)cc2)CC1 [Example 62, 1,1,1,3,3,3-Hexafluoropropan-2-yl 1-(4-chlorobenzyl)-1,8-diazaspiro[4.5]decane-8-carboxylate]",### (### is ≥ 75%),–,–
"CS(=O)(=O)N1CCc2cccc(CN3CCCC34CCN(C(=O)OC(C(F)(F)F)C(F)(F)F)CC4)c2C1 [Example 146, 1,1,1,3,3,3-Hexafluoropropan-2-yl 1-((2-methanesulfonyl-1,2,3,4-tetrahydroisoquinolin-8-yl)methyl)-1,8-diazaspiro[4.5]decane-8-carboxylate]",### (### is ≥ 75%),# (# is < 25%),–
"O=C(OC(C(F)(F)F)C(F)(F)F)N1CCC2(CCN(Cc3ccc(Cl)cc3N3CCOCC3)C2)CC1 [Example 21, 1,1,1,3,3,3-Hexafluoropropan-2-yl 2-(4-chloro-2-morpholinobenzyl)-2,8-diazaspiro[4.5]decane-8-carboxylate]",### (### is ≥ 75%),# (# is < 25%),–
"O=C(O)C1CCN(c2cc(CN3CCCC34CCN(C(=O)OC(C(F)(F)F)C(F)(F)F)CC4)cc(C(F)(F)F)c2)CC1 [Example 123, 1-(3-((8-(((1,1,1,3,3,3-Hexafluoropropan-2-yl)oxy)carbonyl)-1,8-diazaspiro[4.5]decan-1-yl)methyl)-5-(trifluoromethyl)phenyl)piperidine-4-carboxylic acid]",### (### is ≥ 75%),# (# is < 25%),–
